Where two headings read alike, the source gives them in different places.
Columns and labels:
human 11β-HSD1 enzyme = target: T1, human 11β-HSD1 enzyme (Homo sapiens, UniProt P28845); assay: Cellular in vitro 11β-HSD1 enzyme inhibition assay (SPA, HEK293/11β-HSD1 cells); assay type: cell-based; conditions: read-out: IC50 for 11β-HSD1 (HEK293)
T1 construct: stably transfected with a construct containing the full-length gene coding for the human 11β-HSD1 enzyme; expressed in transfected cells; HEK293/11β-HSD1 cells)
Protocol: Cellular In Vitro 11β-HSD1 Enzyme Inhibition Assay
Compounds were assessed by a Scintillation Proximity Assay (SPA) performed according to the following protocol:
HEK293 cells were stably transfected with a construct containing the full-length gene coding for the human 11β-HSD1 enzyme to create HEK293/11β-HSD1 cells. Cells were routinely cultured in DMEM containing 10% calf foetal serum, 1% glutamine, and 1% penicillin and streptomycin. Prior to assay, cells were plated at 2×10^4 cells/well in 96-well poly-D-Lys coated flat-bottomed microplates and incubated in 5% CO2, 95% O2 at 37° C. for 24 hours. The media in each well was removed immediately before assay.
Compounds to be tested were dissolved in DMSO at 10 mM and serially diluted into water containing 10% DMSO. Diluted compounds at a volume of 10 μL were added to wells of a 96-well V-bottomed microplate. A solution of DMEM, 1% glutamine, 1% penicillin and streptomycin, and 22 nM tritiated cortisone was prepared and 90 μL added to each well of the assay plate. This solution (100 μL/well) was transferred to the plate containing the cells. The plate was then incubated in 5% CO2, 95% O2 at 37° C. for 2 hours.
Following this incubation, 50 μL of the assay solution was transferred to each well of a 96-well scintillation microplate. A mixture consisting of anti-mouse YSi SPA beads, pre-mixed with anti-cortisol antibody in assay buffer (50 mM Tris.HCl, pH 7.0; 300 mM NaCl; 1 mM EDTA, 5% glycerol) was prepared and 50 μL added to each well of the scintillation microplate. An adhesive strip was applied to the microplate and the plate gently shaken for at least 2 hours at room temperature, and then spun briefly on a low speed centrifuge. The plate was read on a scintillation counter suitable for 96-well microplates. For the calculation of percentage inhibition, a series of wells were added to the plate that represented the assay maximum and the assay minimum: one set that contained substrate without cells (minimum) and another set that contained substrate and cells without any compound (maximum).
The calculation of median inhibitory concentration (IC50) values for the compounds was performed using GraphPad Prism® software. Dose-response curves for each compound were plotted as fractional inhibition and data fitted to the four parameter logistic equation.

human 11β-HSD2 = target: T2, human 11β-HSD2 (Homo sapiens, UniProt P80365); assay: Cellular in vitro 11β-HSD2 enzyme inhibition assay (CHO cells); assay type: cell-based; conditions: CHO cells stably transfected with human 11β-HSD2; Table 1
T2 construct: CHO cells stably transfected with the full-length gene coding for human 11β-HSD2 were used; expressed in transfected cells
T2 sequence (P80365 1-405): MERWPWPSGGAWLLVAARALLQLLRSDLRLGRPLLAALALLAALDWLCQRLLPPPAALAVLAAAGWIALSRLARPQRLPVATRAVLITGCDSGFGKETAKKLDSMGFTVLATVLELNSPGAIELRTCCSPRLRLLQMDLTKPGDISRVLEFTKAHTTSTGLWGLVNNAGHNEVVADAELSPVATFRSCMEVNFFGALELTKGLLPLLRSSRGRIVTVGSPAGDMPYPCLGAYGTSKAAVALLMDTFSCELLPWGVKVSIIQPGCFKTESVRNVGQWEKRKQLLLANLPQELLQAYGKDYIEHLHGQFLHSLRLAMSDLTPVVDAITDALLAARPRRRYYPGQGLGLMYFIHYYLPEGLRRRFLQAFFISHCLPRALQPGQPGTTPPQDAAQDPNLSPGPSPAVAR
Protocol: Cellular In Vitro 11β-HSD2 Enzyme Inhibition Assay
Assays were carried out in 96-well microplates containing 1×10^5 cells/well. Controls and compounds were plated as above, so that the final DMSO concentration in each well was 1%. To initiate the assay, 90 μL of a solution of HAMS F-12 medium containing 1% glutamine, 1% penicillin and streptomycin, and 22 nM tritiated cortisol was added to each well of the assay plate. The plate was then incubated in 5% CO2, 95% O2 at 37° C. for 16 hours.
The assay solutions were transferred to glass tubes and 20 μL ethyl acetate added to each tube. Each tube was vortexed thoroughly and the upper layer containing the tritiated steroid transferred to a fresh glass tube. The solvent was evaporated by placing the tubes in a heating block at 65° C. under a stream of Nitrogen gas. 20 μL ethanol was added to each of the dried samples and vortexed briefly. Each sample was applied to a silica TLC plate and the plate dried. The plate was placed vertically in a glass tank containing 92% chloroform:8% ethanol and the solvent allowed to rise up the plate. The plate was dried, placed in an imaging cassette, and overlayed with a tritium imaging plate for 1-2 days. The amount of enzyme inhibition in each sample was determined by measuring the intensity of the substrate and product spots using a phosphoimager.
IC50 values for inhibitors were determined as described for 11β-HSD1.

[1] = In vitro human liver microsomal stability assay; assay type: in vitro ADME; conditions: human liver microsomes
Protocol: In Vitro Human Liver Microsomal Stability Assay
To predict in vivo metabolism of compounds, the stability of compounds incubated with human liver microsomes in vitro was determined. Human liver microsome preparations were stored at −80° C. and thawed on ice prior to use. The thawed microsomes were diluted to a concentration of 2 mg/mL in 50 mM sodium phosphate, pH 7.4. Reference and test compounds were prepared as 10 mM stocks in 100% DMSO and diluted to 1 mM in acetonitrile before use. Each compound was tested in triplicate as follows:
4 μL of test or reference compound was added to a well of a 24-well microplate and 0.5 mL of 4 mM NADPH added. The plate was then transferred to a shaker for 10 minutes at room temperature. 30 μL of the compound/NADPH solution was transferred to the well of a 96-well microplate and incubated at 37° C. for 5 minutes. 30 μL of human liver microsomes (pre-incubated at 37° C. for 5 minutes) was added to the well containing the compound/NADPH solution and the plate incubated for the selected period of time (typically 0 or 30 minutes). The reaction was stopped by adding 60 μL of ice cold […] trichloroacetic acid. The plate was centrifuged at 1000 rpm for 5 minutes at room temperature and the supernatant transferred to the well of a new 96-well v-bottomed microplate for mass spectrometric analysis.
Samples were analyzed by TSQ Quantum Discovery Tandem Mass Spectrometer and Surveyor Liquid Chromatogram (Thermo, Hemel-Hempstead, UK). 10 μL of each sample was injected in a mobile phase consisting of 60%:40% methanol:5 mM ammonium acetate at a flow rate of 0.5 mL/minute. The column used was a BDS hypersil, C18, 50×2.1 mm with a 5 μm particle size.
Each compound was tuned with a spray voltage of 3000 V and a capillary temperature of 300° C. and values for tube lens, CID and product ions were determined.
The peak area for each compound was measured in triplicate for the 0 and 30 minute samples and the average of each was reported. The percentage remaining after 30 minutes was calculated as the average peak area of the sample after 30 minutes divided by the average peak area at 0 minutes. The RSD was 10% or lower for each compound.

Pharmacokinetics in rat = assay type: in vivo, male Sprague Dawley rats; conditions: male, Sprague Dawley, whole blood, intravenous 1 mg/kg and oral 10 mg/kg, read-out: % F (% Bioavailability)
Protocol: The pharmacokinetics of certain compounds were determined following intravenous (1 mg/kg) and oral (10 mg/kg) administration to male Sprague Dawley rats. Dosing solution was prepared by mixing each compound with 2% DMSO, 38% PEG-400 and 60% (0.9%) NaCl. Solutions were passed through 0.2 μm filters prior to administration.
Following dosing and at appropriate time points, blood samples were taken from a lateral tail vein and transferred into a tube pre-treated with EDTA. Blood samples were analysed for parent compound by LCMS and the quantity of parent compound remaining determined. Non-compartmental analysis was applied to the data using WinNonlin™ software to determine the pharmacokinetic parameters for each compound.

[2] = HEK293 cells stably transfected with human 11β-HSD1, Table 1

T1 sequence (P28845 whole entry): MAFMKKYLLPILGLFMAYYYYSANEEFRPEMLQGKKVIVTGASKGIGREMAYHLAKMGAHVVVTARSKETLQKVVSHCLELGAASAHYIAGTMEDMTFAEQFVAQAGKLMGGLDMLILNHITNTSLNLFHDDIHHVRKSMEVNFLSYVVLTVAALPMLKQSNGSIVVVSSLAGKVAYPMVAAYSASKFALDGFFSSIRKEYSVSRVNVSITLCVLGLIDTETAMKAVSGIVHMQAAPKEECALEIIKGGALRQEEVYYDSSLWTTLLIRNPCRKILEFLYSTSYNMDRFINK

IC50 (human 11β-HSD1 enzyme; [2]) [nM]	IC50 (human 11β-HSD1 enzyme) [nM]	IC50 (human 11β-HSD2) [nM]	% Parent Remaining at 30 min [1]	bioavailability (Pharmacokinetics in rat) [%]	Structure (SMILES)
208	≤ 500	> 10000	+++ (61-100% +++)	31 to 100	O=C(c1csc(-c2cn[nH]c2)c1)N1CCC(O)(c2ccccc2)CC1 [AA-01, (4-Hydroxy-4-phenyl-piperidin-1-yl)-[5-(1H-pyrazol-4-yl)-thiophen-3-yl]-methanone]
10	≤ 500	> 10000	++ (31-60% ++)	31 to 100	O=C(c1csc(-c2cn[nH]c2)c1)N1CCC(O)(c2ccccc2Cl)CC1 [AA-08]
99	≤ 500	> 10000	–	–	O=C(c1csc(-c2cn[nH]c2)c1)N1CCC(O)(c2ccc(F)cc2Cl)CC1 [AA-12]
–	500 to 1000	–	+++ (61-100% +++)	31 to 100	O=C(c1csc(-c2cn[nH]c2)c1)N1CCC(F)(c2ccccc2)CC1 [AA-17]
104	≤ 500	> 10000	++ (31-60% ++)	–	O=C(c1csc(-c2cn[nH]c2)c1)N1CCC(F)(c2ccccc2F)CC1 [AA-18]
38	≤ 500	> 10000	+++ (61-100% +++)	–	Cc1cccc(F)c1C1(O)CCN(C(=O)c2csc(-c3cn[nH]c3)c2)CC1 [AA-22]
42	≤ 500	> 10000	+ (0-30% +)	–	O=C(c1csc(-c2cn[nH]c2)c1)N1CCC(F)(c2ccccc2Cl)CC1 [AA-36]
107	≤ 500	> 10000	+ (0-30% +)	–	COc1ccccc1C1CCN(C(=O)c2csc(-c3cn[nH]c3)c2)CC1 [BB-03]

The next lines start with the compound.

Structure (SMILES)	IC50 (human 11β-HSD1 enzyme; [2]) [nM]	IC50 (human 11β-HSD1 enzyme) [nM]	IC50 (human 11β-HSD2) [nM]	% Parent Remaining at 30 min [1]	bioavailability (Pharmacokinetics in rat) [%]
O=C(c1csc(-c2cn[nH]c2)c1)N1CCC(O)(c2ccc(Cl)cc2)CC1 [AA-02]	–	≤ 500	–	+++ (61-100% +++)	31 to 100
O=C(c1csc(-c2cn[nH]c2)c1)N1CCC(O)(c2ccccc2F)CC1 [AA-04]	44	≤ 500	> 10000	+++ (61-100% +++)	31 to 100
O=C(c1csc(-c2cn[nH]c2)c1)N1C2CCC1CC(O)(c1ccccc1)C2 (centres unmarked) [AA-06]	21	≤ 500	> 10000	+++ (61-100% +++)	11 to 30
COC1(c2ccccc2)CCN(C(=O)c2csc(-c3cn[nH]c3)c2)CC1 [AA-15]	110	≤ 500	> 10000	++ (31-60% ++)	–
O=C(c1csc(-c2cn[nH]c2)c1)N1C2CCC1CC(O)(c1ccccc1Cl)C2 (centres unmarked) [AA-30]	15	≤ 500	> 10000	++ (31-60% ++)	–
COC1(c2ccccc2Cl)CCN(C(=O)c2csc(-c3cn[nH]c3)c2)CC1 [AA-33]	19	≤ 500	> 10000	+ (0-30% +)	–
O=C(c1csc(-c2cn[nH]c2)c1)N1CCC(F)(c2cc(F)ccc2Cl)CC1 [AA-37]	35	≤ 500	> 10000	++ (31-60% ++)	–
O=C(c1csc(-c2cn[nH]c2)c1)N1C2CCC1CC(c1ccccc1)C2 (centres unmarked) [BB-08]	114	≤ 500	> 10000	++ (31-60% ++)	–
Cc1n[nH]cc1-c1cc(C(=O)N2CCC(c3ccccc3)CC2)cs1 [BB-11]	638	500 to 1000	> 10000	–	–

— patent US8642621B2, “(4-phenyl-piperidin-1-yl)-[5-(1H-pyrazol-4-yl)-thiophen-3-yl]-methanone compounds and their use” (The University Of Edinburgh, priority 2009, dated 2014)
